{"source": "the NIST ThermoML archive (doi:10.1016/j.fluid.2009.02.010)", "key": {"[1]": {"experiment": "refractive index (Na D-line) (dimensionless)", "conditions": "298.15 K; 101.33 kPa; Liquid; Standard Abbe refractometry"}, "[2]": {"conditions": "Liquid, Ebulliometric method (Recirculating still)"}}, "note": "± gives the expanded uncertainty stated by the source."}
{"smiles": "CC(C)CC(C)(C)C", "note": "[2,2,4-trimethylpentane]", "values": [{"measurement": "refractive index", "setting": "[1]", "value": "1.3889 ± 0.0007"}]}
{"smiles": "Cc1ccsc1", "note": "[3-methylthiophene]", "values": [{"measurement": "vapor or sublimation pressure", "setting": "[2]; 333.15 K", "value": "15.43 ± 0.35", "unit": "kPa"}, {"measurement": "vapor or sublimation pressure", "setting": "[2]; 341.98 K", "value": "21.8 ± 0.35", "unit": "kPa"}, {"measurement": "vapor or sublimation pressure", "setting": "[2]; 350.79 K", "value": "30.23 ± 0.36", "unit": "kPa"}, {"measurement": "vapor or sublimation pressure", "setting": "[2]; 359.01 K", "value": "40.33 ± 0.37", "unit": "kPa"}, {"measurement": "vapor or sublimation pressure", "setting": "[2]; 365.62 K", "value": "50.31 ± 0.38", "unit": "kPa"}, {"measurement": "vapor or sublimation pressure", "setting": "[2]; 371.73 K", "value": "61.23 ± 0.39", "unit": "kPa"}, {"measurement": "vapor or sublimation pressure", "setting": "[2]; 376.26 K", "value": "70.53 ± 0.4", "unit": "kPa"}, {"measurement": "vapor or sublimation pressure", "setting": "[2]; 380.53 K", "value": "80.35 ± 0.42", "unit": "kPa"}, {"measurement": "vapor or sublimation pressure", "setting": "[2]; 384.69 K", "value": "91 ± 0.43", "unit": "kPa"}, {"measurement": "vapor or sublimation pressure", "setting": "[2]; 387.89 K", "value": "100.02 ± 0.44", "unit": "kPa"}, {"measurement": "refractive index", "setting": "[1]", "value": "1.5172 ± 0.0007"}]}
{"smiles": "C=C(C)CC(C)(C)C", "note": "[2,4,4-trimethyl-1-pentene]", "values": [{"measurement": "refractive index", "setting": "[1]", "value": "1.4062 ± 0.0007"}]}
{"smiles": "Cc1ccccc1C", "note": "[1,2-dimethylbenzene]", "values": [{"measurement": "refractive index", "setting": "[1]", "value": "1.5028 ± 0.0007"}]}
{"smiles": "C=CCCCC", "note": "[hex-1-ene]", "values": [{"measurement": "refractive index", "setting": "[1]", "value": "1.3849 ± 0.0007"}]}
{"smiles": "C1CCCCC1", "note": "[cyclohexane]", "values": [{"measurement": "refractive index", "setting": "[1]", "value": "1.4235 ± 0.0007"}]}
